Compound | glass transition temperature [°C]
*/C(=C(/*)c1cccc([Si](C)(C)C)c1)c1ccccc1 (repeat unit) | 200.00
*/C=C(\C#N)C(=O)OCCCCCCOC(=O)/C(C#N)=C/c1ccc2c(c1)c1cc(*)ccc1n2CCCCCCCCCCCn1c2ccccc2c2ccccc21 (repeat unit) | 63.00
*/C=C/c1cc(OCCCCCCC)c(/C=C/c2ccc(*)cc2)cc1OCCCCCCC (repeat unit) | 46.00
*/C=C/c1cc(OCCCCCCCC)c(/C=C/c2ccc(*)c3nsnc23)cc1OCCCCCCCC (repeat unit) | 153.00
*/C=C/c1cc(OCCCCCCCCC)c(/C=C/c2ccc(*)cc2)cc1OCCCCCCCCC (repeat unit) | 44.00
*/C=C/c1cc(OCCCCCCCCCCCC)c(/C=C/c2ccc(*)cc2)cc1OCCCCCCCCCCCC (repeat unit) | 38.00
*/C=C/c1ccc(/C=C/c2ccc3c(c2)Sc2cc(*)ccc2N3c2ccc(OCCCCCCCCCCCC)cc2)s1 (repeat unit) | 155.00
*=Cc1cc(OCCCCCCCC)c(/C=N/c2ccc(N=*)cc2)cc1OCCCCCCCC (repeat unit) | 32.70
*CC(*)(C#N)C(=O)OC(C)C (repeat unit) | 66.00
*CC(*)(C#N)C(=O)OCC (repeat unit) | 115.00
*CC(*)(C#N)C(=O)OCC(C)C (repeat unit) | 51.00
*CC(=O)C(*)c1ccccc1 (repeat unit) | 110.00
*CC(=O)O* (repeat unit) | 45.00
*CC(C)(C)C1C(=O)N(C(C)C)C(=O)C1* (repeat unit) | 145.00
*CC(C)(C)C1C(=O)N(C)C(=O)C1* (repeat unit) | 156.50
*CC(C)(C)C1C(=O)N(c2c(CC)cccc2CC)C(=O)C1* (repeat unit) | 210.00
*CC(C)C(*)(C)C (repeat unit) | 37.00
*CC(C)CC(*)(C)C(=O)OC (repeat unit) | 16.00
*CC(CBr)O* (repeat unit) | -14.00
*CC(CC(*)(C#N)C#N)c1ccc(F)cc1 (repeat unit) | 180.00
*CC(CC(*)(C#N)C#N)c1ccc(OC(C)=O)cc1 (repeat unit) | 180.00
*CC(CCCC)O* (repeat unit) | -69.00
*CC(COC(=O)CCCCCN1C(=O)C2C3C=CC(C3)C2C1=O)O* (repeat unit) | 1.00
*CC(COC(=O)c1ccc(N2C(=O)C3C4C=CC(C4)C3C2=O)cc1)O* (repeat unit) | 62.50
*CC(COC(C)(C)C)O* (repeat unit) | -24.00
*CC(COc1ccc(-c2ccc(OC)cc2)cc1)O* (repeat unit) | 111.00

Compound | glass transition temperature [°C]
*CC(COc1ccccc1)O* (repeat unit) | 42.00
*CC(CS(=O)(=O)CCCC)O* (repeat unit) | 37.00
*CC(CSC(C)C)O* (repeat unit) | -44.00
*CC(CSC)O* (repeat unit) | -37.00
*CC(CSCC)O* (repeat unit) | -57.00
*CC(CSCCC)O* (repeat unit) | -61.00
*CC(C[Si](*)(C)C)c1ccccc1 (repeat unit) | -5.00
*CC(Cc1ccc(-c2ccccc2)cc1)C[Si](*)(C)C (repeat unit) | 28.00
*CC(F)(F)C1(F)CC(CC(O)(C(F)(F)F)C(F)(F)F)CC1* (repeat unit) | 98.00
*CC(O)CCCCC(O)CN(*)c1ccc(N(C)C)cc1 (repeat unit) | 72.00
*CC(O)CN(*)c1cc(C)c(/N=N/c2ccc(C#N)cc2)c(C)c1 (repeat unit) | 150.00
*CC(O)CN(*)c1cc(C)c(/N=N/c2ccc(Cl)cc2)c(C)c1 (repeat unit) | 150.00
*CC(O)CN(*)c1cc(C)c(/N=N/c2ccc([N+](=O)[O-])cc2)c(C)c1 (repeat unit) | 152.00
*CC(O)CN(*)c1ccc(/N=N/c2ccc(C(=O)O)cc2)cc1 (repeat unit) | 99.00
*CC(O)CN(C)S(=O)(=O)c1ccc(-c2ccc(S(=O)(=O)N(C)CC(O)COc3ccc(C(C)(C)c4ccc(O*)cc4)cc3)cc2)cc1 (repeat unit) | 101.00
*CC(O)CN(C)S(=O)(=O)c1ccc(-c2ccc(S(=O)(=O)N(C)CC(O)COc3ccc(O*)cc3)cc2)cc1 (repeat unit) | 84.00
*CC(O)CN(C)S(=O)(=O)c1cccc(S(=O)(=O)N(C)CC(O)COc2ccc(O*)cc2)c1 (repeat unit) | 66.00
*CC(O*)c1ccccc1 (repeat unit) | 34.00
*CC(OC)C(C)(C(=O)OC)C(*)(C)C(=O)OC (repeat unit) | 134.00
*CCCC(O)CN(CCCC)c1ccc(C#Cc2ccc(S(*)(=O)=O)cc2)cc1 (repeat unit) | 48.00
*CCCCCCCCCCN/C(C)=N/* (repeat unit) | 80.00
*CCCCCCCCNC(=O)CC(=O)N* (repeat unit) | 55.00
*CCCCCCCCn1c2ccccc2c2cc(/C=C(\C#N)C(=O)OCCCCCCOC(=O)/C(C#N)=C/c3ccc4c(c3)c3ccccc3n4*)ccc21 (repeat unit) | 96.70
*CCCCCCCn1c2ccccc2c2cc(/C=C(\C#N)C(=O)OCCCCCCOC(=O)/C(C#N)=C/c3ccc4c(c3)c3ccccc3n4*)ccc21 (repeat unit) | 107.80
*CCCCCCNC(=O)CC(C)(C)c1ccc(C(C)(C)CC(=O)N*)cc1 (repeat unit) | 91.00
*CCCCCCNC(=O)CC(C)c1ccc(C(C)CC(=O)N*)cc1 (repeat unit) | 88.00

Compound | glass transition temperature [°C]
*CCCCCCOC(=O)CC(=O)OCCCCCCOc1ccc(-n2on2-c2ccc(O*)cc2)cc1 (repeat unit) | 16.00
*CCCCCCOc1c(OC)cc(/C=C/c2ccc(/C=C/c3cc(OC)c(O*)c(OC)c3)cc2)cc1OC (repeat unit) | 90.00
*CCCCCCn1c2ccccc2c2cc(/C=C(\C#N)C(=O)OCCCCCCOC(=O)/C(C#N)=C/c3ccc4c(c3)c3ccccc3n4*)ccc21 (repeat unit) | 117.70
*CCCCCOc1ccc(/C=C/C(=O)OCCN(CCOC(=O)/C=C/c2ccc(O*)cc2)c2ccc(/N=N/c3ccc([N+](=O)[O-])cc3)cc2)cc1 (repeat unit) | 92.00
*CCCCOCC(O)CN(CC(O)CO*)c1ccc(N(C)C)cc1 (repeat unit) | 31.00
*CCCS(=O)(=O)c1ccc(/N=N/c2ccc(N(CCCC)CC(=O)O*)cc2)cc1 (repeat unit) | 92.40
*NC(C)CC(*)=O (repeat unit) | 125.00
*Nc1ccc(-c2ccc(NC(=O)Cc3cc(CC(*)=O)c(C)cc3C)cc2)cc1 (repeat unit) | 230.00
*Nc1cccc(NC(=O)Cc2cc(CC(*)=O)c(C)cc2C)c1 (repeat unit) | 222.00
*OC(C)CC(*)=O (repeat unit) | 3.40
*OC(CCCCC)CC(*)=O (repeat unit) | -33.00
*OC(CCCCCC)CC(*)=O (repeat unit) | -47.00
*OC(CCCCCCC=C)CC(*)=O (repeat unit) | -50.00
*Oc1ccc(/C=C/c2cc(OCCCCCCCC)c(/C=C/c3ccc(Oc4cc5c6c(ccc7c8c(*)cc9c%10c(ccc(c4c67)c%108)C(=O)N(CCCCCCCC)C9=O)C(=O)N(CCCCCCCC)C5=O)cc3)cc2OCCCCCCCC)cc1 (repeat unit) | 103.00
*Oc1ccc(C2(c3ccc(Oc4ccc(/C=C/C(=O)c5ccc(*)cc5)cc4)cc3)c3ccccc3-c3ccccc32)cc1 (repeat unit) | 195.00
*Oc1ccc(NC(=O)/C=C/c2ccc(/C=C/C(=O)Nc3ccc(*)cc3)cc2)cc1 (repeat unit) | 205.00
*Oc1ccc(S(=O)(=O)c2ccc(Oc3ccc(/C=C4\CCC/C(=C\c5ccc(*)cc5)C4=O)cc3)cc2)cc1 (repeat unit) | 190.00
*Oc1ccc(S(=O)(=O)c2ccc(Oc3ccc(C4(c5ccc(Oc6ccc(S(=O)(=O)c7ccc(Oc8ccc(/C=C9\CCC/C(=C\c%10ccc(*)cc%10)C9=O)cc8)cc7)cc6)cc5)CCCCC4)cc3)cc2)cc1 (repeat unit) | 190.00
*Oc1ccc(S(=O)(=O)c2ccc(Oc3ccc(C4(c5ccc(Oc6ccc(S(=O)(=O)c7ccc(Oc8ccc(/C=C9\CCCC/C(=C\c%10ccc(*)cc%10)C9=O)cc8)cc7)cc6)cc5)CCCCCC4)cc3)cc2)cc1 (repeat unit) | 196.00
*SCC(=O)N/N=C/c1ccc(OCCCCCCCCCCOc2ccc(/C=N/NC(=O)CSc3nnc(*)s3)cc2OC)c(OC)c1 (repeat unit) | 156.00
*c1ccc(/C=C/c2cc(OCCCCCCCC)c(/C=C/c3ccc(N(*)c4ccccc4)cc3)cc2OCCCCCCCC)cc1 (repeat unit) | 74.00
*c1ccc(C(=O)OCCCCCCCCCCOc2ccc(/C=C/C(=O)/C=C/c3ccc(OCCCCCCCCCCOC(=O)c4ccc(-c5nnc(*)o5)cc4)cc3)cc2)cc1 (repeat unit) | 58.00
*c1ccc(C(=O)OCCCCCCCCOc2ccc(/C=C/C(=O)/C=C/c3ccc(OCCCCCCCCOC(=O)c4ccc(-c5nnc(*)o5)cc4)cc3)cc2)cc1 (repeat unit) | 59.00
*c1ccc(C(=O)OCCCCCCOc2ccc(/C=C/C(=O)/C=C/c3ccc(OCCCCCCOC(=O)c4ccc(-c5nnc(*)o5)cc4)cc3)cc2)cc1 (repeat unit) | 62.00
*c1ccc(Oc2ccc(/C=C/c3ccc(Oc4ccc(-c5nnc(*)o5)cc4)cc3)cc2)cc1 (repeat unit) | 215.00

Source: the PolyMetriX glass transition set
